The record followed here is patent US20240271096A1, “EFFICIENT DIFFERENTIATION OF SECOND HEART FIELD CARDIAC PROGENITOR CELLS AND RIGHT VENTRICLE CARDIOMYOCYTES FROM HUMAN PLURIPOTENT STEM CELLS” (Wisconsin Alumni Research Foundation, priority 2023, published 2024).

What all share (assay type): cell-based, human
Experiment [1] deals with reporterless hiPSC line. The experiment can be described thus: Immunostaining of marker proteins in hiPSC-derived cardiac progenitor cells and cardiomyocytes. As for the experimental part:
For LV-cardiomyocyte differentiation, cardiac differentiation was performed according to the protocol published by (Lian et al., 2012, Proc Natl Acad Sci USA 109:[…]-57). Cells were dissociated with StemPro Accutase Cell Dissociation Reagent at 37° C. for 5 minutes. HESCs were seeded on Matrigel-coated 24-well plates (Corning) in StemFlex Medium supplemented with 10 μmol/[…] were seeded on iMatrix-511-coated 12-well plates (Corning) in StemFit A[…] supplemented with 10 μmol/[…] at seeding densities of 1×10^5 cells/cm^2 for hESCs and 1.25-2.5×10^4 cells/cm^2 for hiPSCs. Cells were cultured for 4 days until the start of differentiation (day 0). On day 0, the medium was changed to RPMI 1640 Medium (Thermo Fisher Scientific) supplemented with B-27 Supplement minus insulin (Thermo Fisher Scientific) (RPMI/B27-insulin) or B-27 Supplement with insulin (Thermo Fisher Scientific), and 12 μmol/L CHIR 99021 (SelleckChem, Houston, TX, United States), and the cells incubated in this medium for 24 h (day 1). On day 1, the medium was changed to RPMI/B27-insulin. […] On day 3, the medium was changed to RPMI/B27-insulin supplemented with 5 μmol/L IWP2 (SelleckChem) and on day 5, the medium was changed to 1 ml RPMI/B27-insulin. From day 7, the cells were cultured with RPMI/B27-insulin, and the cells were fed every other day. On day 12, the cells were washed with PBS (Thermo Fisher Scientific) and cultured with DMEM or RPMI, no glucose supplemented with 8 mmol/L L-(+)-Lactic acid (Merck) (Tohyama et al., 2013 Cell Stem Cell, 12:127-37). The medium was changed every other day until day 17. After day 17, the cells were cultured with RPMI/B27 and fed every 2 to 3 days. For long-term culture, the cells were dissociated with TrypLETM Select Enzyme (10×) (Thermo Fisher Scientific) at 37° C. for 15-20 minutes and seeded on Matrigel- or iMatrix-511-coated plates. […] For FIG. 15A and FIG. 15B, dorsomorphin (DM) or 3 μg/L insulin were added on day 0 (for 24 hours), 1, 3, or 5 (for 48 hours). Cells were plated on iMatrix-511-coated plates and fixed in 4% paraformaldehyde (Nacalai, Kyoto, Japan) for 15 minutes. Cells were permeabilized with 0.1% Triton X-100 (Sigma-Aldrich, St. Louis, MO, United States)/PBS and blocked with 10% goat serum (Sigma-Aldrich). Primary and secondary antibodies were diluted in 0.1% Triton X-100/PBS with 5% goat serum and stained with Hoechst 33342 (Thermo Fisher Scientific) at 1 μg/mL, mouse anti-cardiac troponin T monoclonal IgG1 (GTX28295, GeneTex, Irvine, CA, United States) diluted at 1:16000, mouse anti-α-actinin monoclonal IgG1 (A7811, Sigma-Aldrich) diluted at 1:1000, rabbit anti-MLC2v monoclonal IgG (ab92721, Abcam, Cambridge, United Kingdom) diluted at 1:500, rabbit anti-CXCR4 monoclonal IgG (ab181020, Abcam) diluted at 1:2000, rabbit anti-NKX2-5 monoclonal IgG (Cat #. […], Cell Signaling Technology, Danvers, MA, United States) diluted at 1:2500, mouse anti-Nav1.5 (Car #. ASC-013, Alomone Labs) diluted at 1:1000, rabbit anti-connexin 43 (Cat #. 83649, Cell Signaling Technology) diluted at 1:1000, and mouse anti-TBX5 monoclonal IgG2a (Cat #. sc-515536, Santa Cruz Biotechnology, Dallas, TX, United States) diluted at 1:500. These cells were then incubated with a secondary antibody, goat anti-mouse or rabbit polyclonal IgG conjugated with iFluor 488 or 555 (AAT Bioquest, Sunnyvale, CA, United States) diluted at 1:1000, for 1 hour at room temperature. The cells were then observed with IX71 (Olympus, Tokyo, Japan) or EVOS FL Auto (Thermo Fisher Scientific) and images processed with ImageJ ([…] al., 2012, Nat Methods, 9:671-5).

Experiment [2] concerns hPSC-CMs. Briefly: Quantitative PCR of purified hiPSC-derived cardiomyocytes. The following applies: DMH1-treated cell-derived cardiomyocytes at day 34. The procedure: For LV-cardiomyocyte differentiation, cardiac differentiation was performed according to the protocol published by (Lian et al., 2012, Proc Natl Acad Sci USA 109:[…]-57). Cells were dissociated with StemPro Accutase Cell Dissociation Reagent at 37° C. for 5 minutes. HESCs were seeded on Matrigel-coated 24-well plates (Corning) in StemFlex Medium supplemented with 10 μmol/[…] were seeded on iMatrix-511-coated 12-well plates (Corning) in StemFit A[…] supplemented with 10 μmol/[…] at seeding densities of 1×10^5 cells/cm^2 for hESCs and 1.25-2.5×10^4 cells/cm^2 for hiPSCs. Cells were cultured for 4 days until the start of differentiation (day 0). On day 0, the medium was changed to RPMI 1640 Medium (Thermo Fisher Scientific) supplemented with B-27 Supplement minus insulin (Thermo Fisher Scientific) (RPMI/B27-insulin) or B-27 Supplement with insulin (Thermo Fisher Scientific), and 12 μmol/L CHIR 99021 (SelleckChem, Houston, TX, United States), and the cells incubated in this medium for 24 h (day 1). On day 1, the medium was changed to RPMI/B27-insulin. […] PowerUpTM SYBR Green Master Mix (Thermo Fisher Scientific) and QuantStudio 1 (Thermo Fisher Scientific) were used for quantitative PCR (q-PCR), wherein q-PCR data were processed using the ΔΔCT method. […] Data were analyzed with the web-based tool of GeneGlobe Data Analysis Center (Qiagen).

The subject of experiment [3] is hiPSC-derived cells. Briefly: Flow cytometry of cardiac troponin T (cTnT). The settings on record: 1 μmol/L on day 0; day 12; n=4; mean±SD; control 82.1±2.6%, p=0.04. As for the experimental part:
For LV-cardiomyocyte differentiation, cardiac differentiation was performed according to the protocol published by (Lian et al., 2012, Proc Natl Acad Sci USA 109:[…]-57). Cells were dissociated with StemPro Accutase Cell Dissociation Reagent at 37° C. for 5 minutes. HESCs were seeded on Matrigel-coated 24-well plates (Corning) in StemFlex Medium supplemented with 10 μmol/[…] were seeded on iMatrix-511-coated 12-well plates (Corning) in StemFit A[…] supplemented with 10 μmol/[…] at seeding densities of 1×10^5 cells/cm^2 for hESCs and 1.25-2.5×10^4 cells/cm^2 for hiPSCs. Cells were cultured for 4 days until the start of differentiation (day 0). On day 0, the medium was changed to RPMI 1640 Medium (Thermo Fisher Scientific) supplemented with B-27 Supplement minus insulin (Thermo Fisher Scientific) (RPMI/B27-insulin) or B-27 Supplement with insulin (Thermo Fisher Scientific), and 12 μmol/L CHIR 99021 (SelleckChem, Houston, TX, United States), and the cells incubated in this medium for 24 h (day 1). On day 1, the medium was changed to RPMI/B27-insulin. […] On day 3, the medium was changed to RPMI/B27-insulin supplemented with 5 μmol/L IWP2 (SelleckChem) and on day 5, the medium was changed to 1 ml RPMI/B27-insulin. […] The cells were resuspended in 0.5% bovine serum albumin (Merck)/PBS and analyzed with an Attune NxT Flow Cytometer (Thermo Fisher Scientific).
On the technique in general: A flow cytometer gives signals particle by particle.

SMILES strings stand for the structures.

As for `CC(C)Oc1ccc(-c2cnc3c(-c4ccnc5ccccc45)cnn3c2)cc1` [DMH1, dorsomorphin homologue 1, reference compound], in experiment [1] (0.5 μmol/L on day 0, day 7), the “CXCR4 expression (immunostaining)” value is “upregulated”. Moreover, in experiment [1] (0.5 μmol/L on day 0, day 35), the “MLC2v, ventricular marker protein (immunostaining)” value was “expressed”. Further, in experiment [1] (DMH1 on differentiation day 0, day 10), the NKX2-5-positive/cTnT-positive cardiomyocytes result is recorded as “induced”. In experiment [1] (DMH1 on differentiation day 0, day 10, dose-dependent), the “TBX5 expression (immunostaining)” value was “reduced”. Moreover, in experiment [1] (cardiomyocytes day 34, vs control), the “immunostaining signal of Nav1.5 and Connexin 43” value is reported as “reduction”. For the same compound, in experiment [2], the “expression of TGFB1, COL1A1, COL1A2, COL3A1, and COL5A1 (qPCR)” value is recorded as “reduced”.
Take `c1cc(-c2cnn3cc(-c4ccc(OCCN5CCCCC5)cc4)cnc23)ccn1` [dorsomorphin]: in experiment [3], the “percentages of cTnT-positive cells” value turned out to be 70.4±7.3%.
